The values that follow are results of earlier work, collected in patent publication US20100227030A1, “METHOD FOR THE CONSERVATION OF A PLANT MATERIAL” (priority 2007, published 2010).

SMILES strings stand for the structures.

For the series the following is noted: at 20° C.

Regarding `OC[C@H]1O[C@H](O[C@H]2O[C@H](CO)[C@@H](O)[C@H](O)[C@H]2O)[C@H](O)[C@@H](O)[C@@H]1O` [trehalose], the Maximal solubility was 68.9 g/100 g water.
